Biological target: CSF-1R (Homo sapiens, UniProt P07333)
Experiment: Peptide (non-phosphorylated) assay, fluorescence polarization competition immunoassay
Assay type: biochemical
Conditions: 0.7 nM CSF-1R, 308 μM SYEGNSYTFIDPTQ peptide, 1 mM ATP, 80 min; mean of at least three determinations; read-out: c-fms Peptide IC50
How it was run: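 Read-out is fluorescence polarization: after EDTA quench, anti-phosphotyrosine antibody plus PTK green tracer compete with the phosphorylated peptide for 30 min. The CSF-1R reaction itself ran 80 min at room temperature after ATP addition. DMSO (4%) wells served as controls, positive controls pre-treated with EDTA.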

Chain of CSF-1R (P07333 20-972): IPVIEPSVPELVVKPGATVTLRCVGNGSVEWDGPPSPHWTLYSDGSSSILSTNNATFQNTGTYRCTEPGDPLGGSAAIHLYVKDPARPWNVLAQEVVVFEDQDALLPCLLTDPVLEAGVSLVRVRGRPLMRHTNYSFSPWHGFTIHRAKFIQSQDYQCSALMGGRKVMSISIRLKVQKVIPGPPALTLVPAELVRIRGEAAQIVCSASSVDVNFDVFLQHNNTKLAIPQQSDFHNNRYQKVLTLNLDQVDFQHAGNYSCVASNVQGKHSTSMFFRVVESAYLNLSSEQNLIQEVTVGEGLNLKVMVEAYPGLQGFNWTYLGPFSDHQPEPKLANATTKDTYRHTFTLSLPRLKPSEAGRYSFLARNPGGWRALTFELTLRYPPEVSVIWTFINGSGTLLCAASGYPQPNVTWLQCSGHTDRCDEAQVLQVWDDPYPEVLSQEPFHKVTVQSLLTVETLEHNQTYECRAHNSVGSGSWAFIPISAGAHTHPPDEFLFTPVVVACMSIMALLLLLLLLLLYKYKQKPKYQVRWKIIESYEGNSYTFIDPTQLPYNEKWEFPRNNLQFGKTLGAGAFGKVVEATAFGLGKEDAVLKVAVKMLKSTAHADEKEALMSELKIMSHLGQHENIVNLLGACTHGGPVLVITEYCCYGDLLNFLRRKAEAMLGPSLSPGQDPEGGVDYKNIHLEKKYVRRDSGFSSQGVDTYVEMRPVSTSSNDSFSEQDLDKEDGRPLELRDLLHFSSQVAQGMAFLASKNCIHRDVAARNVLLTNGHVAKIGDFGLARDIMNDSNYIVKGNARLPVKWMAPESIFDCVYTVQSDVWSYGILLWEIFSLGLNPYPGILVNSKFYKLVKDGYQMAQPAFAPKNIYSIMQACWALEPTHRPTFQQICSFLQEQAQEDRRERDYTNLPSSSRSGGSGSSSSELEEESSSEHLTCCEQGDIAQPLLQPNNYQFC

**Q.** How did the IC50 turn out when `CONC(=O)c1cn(-c2ccc3c(c2)CCC3)c2nc(Nc3ccc(CCN(C)C4CCOCC4)cc3)ncc2c1=O` [Cpd 74, 8-indan-5-yl-2-(4-{2-[methyl-(tetrahydro-pyran-4-yl)-amino]-ethyl}-phenylamino)-5-oxo-5,8-dihydro-pyrido[2,3-d]pyrimidine-6-carboxylic acid methoxy-amide] was run?
**A.** 0.62 nM

**Q.** Which IC50 does the source give for `CONC(=O)c1cn(-c2ccc3c(c2)CCC3)c2nc(Nc3ccc(C4CCNCC4)cc3)ncc2c1=O` [Cpd 75, 8-indan-5-yl-5-oxo-2-(4-piperidin-4-yl-phenylamino)-5,8-dihydro-pyrido[2,3-d]pyrimidine-6-carboxylic acid methoxy-amide] here?
**A.** 0.53 nM

**Q.** How did the IC50 turn out when `CONC(=O)c1cn(-c2ccc3c(c2)CCC3)c2nc(Nc3ccc(C4CCN(S(C)(=O)=O)CC4)cc3)ncc2c1=O` [Cpd 76, 8-indan-5-yl-2-[4-(1-methanesulfonyl-piperidin-4-yl)-phenylamino]-5-oxo-5,8-dihydro-pyrido[2,3-d]pyrimidine-6-carboxylic acid methoxy-amide] was run?
**A.** 0.83 nM

**Q.** How did the IC50 turn out when `CONC(=O)c1cn(-c2ccc3c(c2)CCC3)c2nc(Nc3ccc(CCS(=O)(=O)NC(C)C)cc3)ncc2c1=O` [Cpd 77, 8-indan-5-yl-2-[4-(2-isopropylsulfamoyl-ethyl)-phenylamino]-5-oxo-5,8-dihydro-pyrido[2,3-d]pyrimidine-6-carboxylic acid methoxy-amide] was run?
**A.** 0.95 nM

**Q.** With `CONC(=O)c1cn(-c2ccc3c(c2)CCC3)c2nc(Nc3ccc(C4CCN(CCS(C)(=O)=O)CC4)cc3)ncc2c1=O` [Cpd 78, 8-indan-5-yl-2-{4-[1-(2-methanesulfonyl-ethyl)-piperidin-4-yl]-phenylamino}-5-oxo-5,8-dihydro-pyrido[2,3-d]pyrimidine-6-carboxylic acid methoxy-amide] as the compound, how does the IC50 read?
**A.** 0.72 nM

**Q.** Which IC50 does the source give for `CONC(=O)c1cn(-c2ccc3c(c2)CCC3)c2nc(Nc3ccc(CCO)cc3)ncc2c1=O` [Cpd 79, 2-[4-(2-hydroxy-ethyl)-phenylamino]-8-indan-5-yl-5-oxo-5,8-dihydro-pyrido[2,3-d]pyrimidine-6-carboxylic acid methoxy-amide] here?
**A.** 0.87 nM

**Q.** Which IC50 does the source give for `COCCc1ccc(Nc2ncc3c(=O)c(C(=O)NOC)cn(-c4ccc5c(c4)CCC5)c3n2)cc1` [Cpd 81, 8-indan-5-yl-2-[4-(2-methoxy-ethyl)-phenylamino]-5-oxo-5,8-dihydro-pyrido[2,3-d]pyrimidine-6-carboxylic acid methoxy-amide] here?
**A.** 3 nM

**Q.** How did the IC50 turn out when `CONC(=O)c1cn(-c2ccc3c(c2)CCC3)c2nc(Nc3ccc(CCNS(C)(=O)=O)cc3)ncc2c1=O` [Cpd 82, 8-indan-5-yl-2-[4-(2-methanesulfonylamino-ethyl)-phenylamino]-5-oxo-5,8-dihydro-pyrido[2,3-d]pyrimidine-6-carboxylic acid methoxy-amide] was run?
**A.** 3.6 nM

**Q.** For `CONC(=O)c1cn(-c2ccc3c(c2)CCC3)c2nc(Nc3ccc(CCN4CCC(=O)CC4)cc3)ncc2c1=O` [Cpd 83, 8-indan-5-yl-5-oxo-2-{4-[2-(4-oxo-piperidin-1-yl)-ethyl]-phenylamino}-5,8-dihydro-pyrido[2,3-d]pyrimidine-6-carboxylic acid methoxy-amide], which IC50 is on record?
**A.** 1 nM

**Q.** How did the IC50 turn out when `CONC(=O)c1cn(-c2ccc3c(c2)CCC3)c2nc(Nc3ccc(C4CCN(CCC(=O)O)CC4)cc3)ncc2c1=O` [Cpd 84, 3-{4-[4-(8-indan-5-yl-6-methoxycarbamoyl-5-oxo-5,8-dihydro-pyrido[2,3-d]pyrimidin-2-ylamino)-phenyl]-piperidin-1-yl}-propionic acid] was run?
**A.** 2 nM

**Q.** For `CONC(=O)c1cn(-c2ccc3c(c2)CCC3)c2nc(Nc3ccc(C4CCN(CC(=O)O)CC4)cc3)ncc2c1=O` [Cpd 85, {4-[4-(8-indan-5-yl-6-methoxycarbamoyl-5-oxo-5,8-dihydro-pyrido[2,3-d]pyrimidin-2-ylamino)-phenyl]-piperidin-1-yl}-acetic acid], which IC50 is on record?
**A.** 2.2 nM

**Q.** `CCOC(=O)CN1CCC(c2ccc(Nc3ncc4c(=O)c(C(=O)NOC)cn(-c5ccc6c(c5)CCC6)c4n3)cc2)CC1` [Cpd 86, {4-[4-(8-indan-5-yl-6-methoxycarbamoyl-5-oxo-5,8-dihydro-pyrido[2,3-d]pyrimidin-2-ylamino)-phenyl]-piperidin-1-yl}-acetic acid ethyl ester] was tested. Which IC50 did it give?
**A.** 1.8 nM

**Q.** Which IC50 does the source give for `CONC(=O)c1cn(-c2ccc3c(c2)CCC3)c2nc(Nc3ccc(C4CCN(CC(=O)NS(C)(=O)=O)CC4)cc3)ncc2c1=O` [Cpd 87, 8-indan-5-yl-2-{4-[1-(2-methanesulfonylamino-2-oxo-ethyl)-piperidin-4-yl]-phenylamino}-5-oxo-5,8-dihydro-pyrido[2,3-d]pyrimidine-6-carboxylic acid methoxy-amide] here?
**A.** 2.4 nM

**Q.** Which IC50 does the source give for `CONC(=O)c1cn(-c2ccc3c(c2)CCC3)c2nc(Nc3ccc(C4CCN(CCO)CC4)cc3)ncc2c1=O` [Cpd 88, 2-{4-[1-(2-hydroxy-ethyl)-piperidin-4-yl]-phenylamino}-8-indan-5-yl-5-oxo-5,8-dihydro-pyrido[2,3-d]pyrimidine-6-carboxylic acid methoxy-amide] here?
**A.** 1.3 nM

**Q.** With `CNS(=O)(=O)CCc1ccc(Nc2ncc3c(=O)c(C(=O)NOC)cn(-c4ccc5c(c4)CCC5)c3n2)cc1` [Cpd 89, 8-indan-5-yl-2-[4-(2-methylsulfamoyl-ethyl)-phenylamino]-5-oxo-5,8-dihydro-pyrido[2,3-d]pyrimidine-6-carboxylic acid methoxy-amide] as the compound, how does the IC50 read?
**A.** 1.4 nM

**Q.** Which IC50 does the source give for `CONC(=O)c1cn(-c2ccc3c(c2)CCC3)c2nc(Nc3ccc(Cc4nnn[nH]4)cc3)ncc2c1=O` [Cpd 91, 8-indan-5-yl-5-oxo-2-[4-(1H-tetrazol-5-ylmethyl)-phenylamino]-5,8-dihydro-pyrido[2,3-d]pyrimidine-6-carboxylic acid methoxy-amide] here?
**A.** 2 nM

**Q.** `CCc1ccc(-n2cc(C(=O)NOC3CCCC3)c(=O)c3cnc(Nc4ccc(CCN5CCN(C)CC5)cc4)nc32)cc1` [Cpd 92, 8-(4-ethyl-phenyl)-2-{4-[2-(4-methyl-piperazin-1-yl)-ethyl]-phenylamino}-5-oxo-5,8-dihydro-pyrido[2,3-d]pyrimidine-6-carboxylic acid cyclopentyloxy-amide] was tested. Which IC50 did it give?
**A.** 4.9 nM

**Q.** `CCc1ccc(-n2cc(C(=O)NOC(CC)CC)c(=O)c3cnc(Nc4ccc(CCN5CCN(C)CC5)cc4)nc32)cc1` [Cpd 93, 8-(4-ethyl-phenyl)-2-{4-[2-(4-methyl-piperazin-1-yl)-ethyl]-phenylamino}-5-oxo-5,8-dihydro-pyrido[2,3-d]pyrimidine-6-carboxylic acid (1-ethyl-propoxy)-amide] was tested. Which IC50 did it give?
**A.** 4.9 nM

**Q.** Which IC50 does the source give for `CCc1ccc(-n2cc(C(=O)NOC)c(=O)c3cnc(Nc4ccc(C5CCN(CC(=O)O)CC5)cc4)nc32)cc1` [Cpd 94, (4-{4-[8-(4-ethyl-phenyl)-6-methoxycarbamoyl-5-oxo-5,8-dihydro-pyrido[2,3-d]pyrimidin-2-ylamino]-phenyl}-piperidin-1-yl)-acetic acid] here?
**A.** 0.9 nM

**Q.** How did the IC50 turn out when `CCc1ccc(-n2cc(C(=O)NOC)c(=O)c3cnc(Nc4ccc(C5CCN(CCO)CC5)cc4)nc32)cc1` [Cpd 95, 8-(4-ethyl-phenyl)-2-{4-[1-(2-hydroxy-ethyl)-piperidin-4-yl]-phenylamino}-5-oxo-5,8-dihydro-pyrido[2,3-d]pyrimidine-6-carboxylic acid methoxy-amide] was run?
**A.** 1.8 nM

**Q.** `CCc1ccc(-n2cc(C(=O)NOC)c(=O)c3cnc(Nc4ccc(C5CCN(CCS(C)(=O)=O)CC5)cc4)nc32)cc1` [Cpd 96, 8-(4-ethyl-phenyl)-2-{4-[1-(2-methanesulfonyl-ethyl)-piperidin-4-yl]-phenylamino}-5-oxo-5,8-dihydro-pyrido[2,3-d]pyrimidine-6-carboxylic acid methoxy-amide] was tested. Which IC50 did it give?
**A.** 0.9 nM

**Q.** For `CONC(=O)c1cn(-c2ccc3c(c2)CCC3)c2nc(Nc3ccc(CCNCCO)cc3)ncc2c1=O` [Cpd 97, 2-{4-[2-(2-hydroxy-ethylamino)-ethyl]-phenylamino}-8-indan-5-yl-5-oxo-5,8-dihydro-pyrido[2,3-d]pyrimidine-6-carboxylic acid methoxy-amide], which IC50 is on record?
**A.** 0.63 nM

**Q.** `COCCNCCc1ccc(Nc2ncc3c(=O)c(C(=O)NOC)cn(-c4ccc5c(c4)CCC5)c3n2)cc1` [Cpd 98, 8-indan-5-yl-2-{4-[2-(2-methoxy-ethylamino)-ethyl]-phenylamino}-5-oxo-5,8-dihydro-pyrido[2,3-d]pyrimidine-6-carboxylic acid methoxy-amide] was tested. Which IC50 did it give?
**A.** 1.4 nM

**Q.** How did the IC50 turn out when `CONC(=O)c1cn(-c2ccc3c(c2)CCC3)c2nc(Nc3ccc(CCNCCS(C)(=O)=O)cc3)ncc2c1=O` [Cpd 99, 8-indan-5-yl-2-{4-[2-(2-methanesulfonyl-ethylamino)-ethyl]-phenylamino}-5-oxo-5,8-dihydro-pyrido[2,3-d]pyrimidine-6-carboxylic acid methoxy-amide] was run?
**A.** 0.9 nM

**Q.** `CONC(=O)c1cn(-c2ccc3c(c2)CCC3)c2nc(Nc3ccc(CCN(CCO)CCO)cc3)ncc2c1=O` [Cpd 100, 2-(4-{2-[bis-(2-hydroxy-ethyl)-amino]-ethyl}-phenylamino)-8-indan-5-yl-5-oxo-5,8-dihydro-pyrido[2,3-d]pyrimidine-6-carboxylic acid methoxy-amide] was tested. Which IC50 did it give?
**A.** 0.64 nM

Same assay, conditions: c-fms Peptide IC50, 0.7 nM CSF-1R, 308 μM SYEGNSYTFIDPTQ peptide, 1 mM ATP, 80 min; mean of at least three determinations

**Q.** `CONC(=O)c1cn(-c2ccc3c(c2)CCC3)c2nc(Nc3ccc(CCN4CCOCC4)cc3)ncc2c1=O` [Cpd 80, 8-indan-5-yl-2-[4-(2-morpholin-4-yl-ethyl)-phenylamino]-5-oxo-5,8-dihydro-pyrido[2,3-d]pyrimidine-6-carboxylic acid methoxy-amide] was tested. Which IC50 did it give?
**A.** 1.3 nM

**Q.** With `CONC(=O)c1cn(-c2ccc3c(c2)CCC3)c2nc(Nc3ccc(CCS(=O)(=O)NC(C)=O)cc3)ncc2c1=O` [Cpd 90, 2-[4-(2-acetylsulfamoyl-ethyl)-phenylamino]-8-indan-5-yl-5-oxo-5,8-dihydro-pyrido[2,3-d]pyrimidine-6-carboxylic acid methoxy-amide] as the compound, how does the IC50 read?
**A.** 2.4 nM

— US20080114007A1 (priority 2006, published 2008)
